Laboratory results taken from PubChem BioAssay AID280 (DTP/NCI, 2004).
Several values for one entry are separate records, joined by “and”; a condition that tells them apart may be missing. Equal values may be shown once. Inconclusive results and toxic doses are left out.

Test system: nude mice, LOX melanoma ip, survival T/C
Assay: NCI In Vivo Anticancer Drug Screen. Data for tumor model Human Amelanotic Melanoma (LOX) (intraperitoneal) in NU/NU BALB/C (nude) mice
Conditions: endpoint: median survival time, higher = longer survival
Procedure: The antitumor activity of compounds was measured in mice bearing transplantable tumors. Survival or tumor size were measured and the results are expressed as the measurement made in the treated group (T) divided by the measurement made in the vehicle treated control group (C). The tumor model used in this assay is Human Amelanotic Melanoma (LOX) (intraperitoneal) in NU/NU BALB/C (nude) mice

[1] = dose: 100.0 mg/kg/injection, schedule: Q04DX003 (ip), vehicle: Klucel (hydroxypropylcellulose) (HPC)
[2] = dose: 100.0 mg/kg/injection, schedule: Q04DX003 (ip), vehicle: saline with Tween-80
[3] = dose: 200.0 mg/kg/injection, schedule: Q04DX003 (ip), vehicle: saline with Tween-80
[4] = dose: 25.0 mg/kg/injection, schedule: Q04DX003 (ip), vehicle: suspension in saline
[5] = dose: 50.0 mg/kg/injection, schedule: Q04DX003 (ip), vehicle: suspension in saline
[6] = dose: 100.0 mg/kg/injection, schedule: Q04DX003 (ip), vehicle: suspension in saline

`CNC(=S)SC1=NS(=O)(=O)c2ccccc2N1` was tested, and the T/C (dose: 50.0 mg/kg/injection, schedule: Q04DX003 (ip), vehicle: Klucel (hydroxypropylcellulose) (HPC)) was 100 % of control, the T/C [1] was 104 % of control and the T/C (dose: 200.0 mg/kg/injection, schedule: Q04DX003 (ip), vehicle: Klucel (hydroxypropylcellulose) (HPC)) was 104 % of control.

With `CC(=O)O[C@H]1C(=O)[C@@]2(C)C(C(OC(=O)c3ccccc3)[C@]3(O)C[C@H](OC(=O)C(OC(=O)CCCC(=O)NCCCN(C)C)C(NC(=O)c4ccccc4)c4ccccc4)C(C)=C1C3(C)C)C1(OC(C)=O)COC1C[C@@H]2O` (stereo not given in full) the T/C (dose: 2.5 mg/kg/injection, schedule: Q01DX009 (ip), vehicle: water) was 155 % of control, the T/C (dose: 5.0 mg/kg/injection, schedule: Q01DX009 (ip), vehicle: water) was 156 % of control and the T/C (dose: 10.0 mg/kg/injection, schedule: Q01DX009 (ip), vehicle: water) was 157 % of control and 225 % of control. For the same compound, the T/C (dose: 20.0 mg/kg/injection, schedule: Q01DX009 (ip), vehicle: water) was 205 % of control and 310 % of control.

In the case of `COC(=O)C1C2CCCN2OC1(C)CO` (stereo not given), the T/C (dose: 30.0 mg/kg/injection, schedule: Q04DX003 (ip), vehicle: saline) is reported as 103 % of control, the T/C (dose: 60.0 mg/kg/injection, schedule: Q04DX003 (ip), vehicle: saline) is reported as 97 % of control and the T/C (dose: 62.5 mg/kg/injection, schedule: Q04DX003 (ip), vehicle: saline with Tween-80) is reported as 111 % of control. The T/C (dose: 120.0 mg/kg/injection, schedule: Q04DX003 (ip), vehicle: saline) was 99 % of control, the T/C (dose: 240.0 mg/kg/injection, schedule: Q04DX003 (ip), vehicle: saline) was 89 % of control and the T/C (dose: 250.0 mg/kg/injection, schedule: Q04DX003 (ip), vehicle: saline with Tween-80) was 101 % of control. The T/C (dose: 500.0 mg/kg/injection, schedule: Q04DX003 (ip), vehicle: saline with Tween-80) was 100 % of control and the T/C (dose: 1000.0 mg/kg/injection, schedule: Q04DX003 (ip), vehicle: saline with Tween-80) was 98 % of control.

For `NC(=O)C1C=CN(Cc2ccccc2)C=C1`, the T/C (dose: 50.0 mg/kg/injection, schedule: Q04DX003 (ip), vehicle: saline with Tween-80) was 112 % of control, the T/C [2] was 117 % of control and the T/C [3] was 123 % of control.

With `NC(CCC(=O)NC(CS)C(=O)NCC(=O)O)C(=O)O` (stereo not given) the T/C (dose: 75.0 mg/kg/injection, schedule: Q04DX003 (ip), vehicle: saline) was 100 % of control, the T/C (dose: 150.0 mg/kg/injection, schedule: Q04DX003 (ip), vehicle: saline) was 100 % of control and the T/C (dose: 259.0 mg/kg/injection, schedule: Q04DX003 (ip), vehicle: saline) was 108 % of control. The T/C (dose: 300.0 mg/kg/injection, schedule: Q04DX003 (ip), vehicle: saline) was 107 % of control, the T/C (dose: 432.0 mg/kg/injection, schedule: Q04DX003 (ip), vehicle: saline) was 108 % of control and the T/C (dose: 600.0 mg/kg/injection, schedule: Q04DX003 (ip), vehicle: saline) was 104 % of control. For the same compound, the T/C (dose: 720.0 mg/kg/injection, schedule: Q04DX003 (ip), vehicle: saline) was 93 % of control and the T/C (dose: 1200.0 mg/kg/injection, schedule: Q04DX003 (ip), vehicle: saline) was 95 % of control.

For `CCOC(=O)c1ccc(NN=NCCF)cc1`, the T/C (dose: 75.0 mg/kg/injection, schedule: Q04DX003 (ip), vehicle: distilled water + Tween-80 + alcohol) was 111 % of control, the T/C (dose: 150.0 mg/kg/injection, schedule: Q04DX003 (ip), vehicle: distilled water + Tween-80 + alcohol) was 106 % of control and the T/C (dose: 300.0 mg/kg/injection, schedule: Q04DX003 (ip), vehicle: distilled water + Tween-80 + alcohol) was 110 % of control. The T/C (dose: 600.0 mg/kg/injection, schedule: Q04DX003 (ip), vehicle: distilled water + Tween-80 + alcohol) was 100 % of control.

With `S=c1sc2ccccc2n1CN1CCOCC1` the T/C (dose: 75.0 mg/kg/injection, schedule: Q04DX003 (ip), vehicle: saline with Tween-80) was 102 % of control and the T/C (dose: 300.0 mg/kg/injection, schedule: Q04DX003 (ip), vehicle: saline with Tween-80) was 90 % of control.

In the case of `CC(=O)/C(=C\c1ccc(Cl)c(Cl)c1)C(=O)CCN(C)C`, the T/C (dose: 6.25 mg/kg/injection, schedule: Q04DX003 (ip), vehicle: suspension in saline) is reported as 96 % of control, the T/C (dose: 12.5 mg/kg/injection, schedule: Q04DX003 (ip), vehicle: suspension in saline) is reported as 102 % of control and the T/C [4] is reported as 96 % of control. For the same compound, the T/C [5] was 86 % of control and the T/C [6] was 122 % of control.

`CC1OC(O[C@H]2/C=C/C=C/C=C/C=C/C=C/C=C/C=C/[C@H](C)[C@@H](O)[C@@H](C)[C@H](C)OC(=O)C[C@H](O)C[C@H](O)CC[C@@H](O)[C@H](O)C[C@H](O)C[C@]3(O)C[C@H](O)[C@@H](C(=O)O)[C@H](C2)O3)C(O)C(N)C1O` (stereo not given in full) was tested, and the T/C (dose: 12.5 mg/kg/injection, schedule: Q04DX003 (ip), vehicle: saline + Tween-80 + alcohol) was 110 % of control and the T/C (dose: 25.0 mg/kg/injection, schedule: Q04DX003 (ip), vehicle: saline + Tween-80 + alcohol) was 107 % of control.

`OCC1OC(n2cnc3c2NC=NC[C@H]3O)CC1O` (stereo not given in full) was tested, and the T/C (dose: 2.0 mg/kg/injection, schedule: Q04DX003 (ip), vehicle: saline) was 102 % of control, the T/C (dose: 4.0 mg/kg/injection, schedule: Q04DX003 (ip), vehicle: saline) was 94 % of control and the T/C (dose: 8.0 mg/kg/injection, schedule: Q04DX003 (ip), vehicle: saline) was 96 % of control. For the same compound, the T/C (dose: 16.0 mg/kg/injection, schedule: Q04DX003 (ip), vehicle: saline) was 100 % of control.

`COc1cc2c(c(OC)c1O)-c1ccc(OC)c(=O)cc1[C@@H](NC(=O)C(F)(F)F)CC2` was tested, and the T/C (dose: 2.5 mg/kg/injection, schedule: Q04DX003 (ip), vehicle: Klucel (hydroxypropylcellulose) (HPC)) was 122 % of control.

`Cc1cc(N/N=C/c2ccccn2)nc2ccccc12` was tested, and the T/C (dose: 75.0 mg/kg/injection, schedule: Q04DX003 (ip), vehicle: Klucel (hydroxypropylcellulose) (HPC)) was 107 % of control and the T/C (dose: 150.0 mg/kg/injection, schedule: Q04DX003 (ip), vehicle: Klucel (hydroxypropylcellulose) (HPC)) was 107 % of control.

For `C/C(=N\NC(=S)N1CCN(c2ccccn2)CC1)c1ccccn1`, the T/C (dose: 10.0 mg/kg/injection, schedule: Q04DX003 (ip), vehicle: water) was 89 % of control, the T/C (dose: 20.0 mg/kg/injection, schedule: Q04DX003 (ip), vehicle: water) was 95 % of control and the T/C (dose: 40.0 mg/kg/injection, schedule: Q04DX003 (ip), vehicle: water) was 94 % of control. The T/C (dose: 80.0 mg/kg/injection, schedule: Q04DX003 (ip), vehicle: water) was 97 % of control.

`N/C(=N/N=C/c1cc(Br)cc(Br)c1O)NO` was tested, and the T/C [4] was 98 % of control, the T/C [5] was 96 % of control and the T/C [6] was 86 % of control.

In the case of `NC(=S)N/N=C/c1cc(=O)c2cc(Cl)ccc2o1`, the T/C (dose: 75.0 mg/kg/injection, schedule: Q04DX003 (ip), vehicle: other) is reported as 107 % of control, the T/C (dose: 150.0 mg/kg/injection, schedule: Q04DX003 (ip), vehicle: other) is reported as 101 % of control and the T/C (dose: 300.0 mg/kg/injection, schedule: Q04DX003 (ip), vehicle: other) is reported as 100 % of control. The T/C (dose: 600.0 mg/kg/injection, schedule: Q04DX003 (ip), vehicle: other) was 105 % of control and the T/C (dose: 1200.0 mg/kg/injection, schedule: Q04DX003 (ip), vehicle: other) was 101 % of control.

In the case of `COc1ccc(C(C)c2cc3c(cc2OC)OCO3)cc1` (stereo not given), the T/C (dose: 25.0 mg/kg/injection, schedule: Q04DX003 (ip), vehicle: saline with Tween-80) is reported as 114 % of control, the T/C [2] is reported as 158 % of control and the T/C [3] is reported as 198 % of control.

`CN=C(N)N/N=C(\C)c1ccc2oc3ccc(/C(C)=N/NC(N)=NC)cc3c2c1` was tested, and the T/C (dose: 18.0 mg/kg/injection, schedule: Q04DX003 (ip), vehicle: Klucel (hydroxypropylcellulose) (HPC)) was 102 % of control and 123 % of control, the T/C (dose: 30.0 mg/kg/injection, schedule: Q04DX003 (ip), vehicle: Klucel (hydroxypropylcellulose) (HPC)) was 117 % of control and 99 % of control and the T/C (dose: 83.0 mg/kg/injection, schedule: Q04DX003 (ip), vehicle: Klucel (hydroxypropylcellulose) (HPC)) was 116 % of control. The T/C (dose: 83.33 mg/kg/injection, schedule: Q04DX003 (ip), vehicle: Klucel (hydroxypropylcellulose) (HPC)) was 88 % of control and the T/C [1] was 108 % of control.

For `COc1ccc(O)cc1`, the T/C [2] was 124 % of control and the T/C [3] was 102 % of control.

For `CCOC(=O)C1=C(Nc2ccc(OC)cc2)C(N)=NC1=N`, the T/C [5] was 107 % of control and the T/C [6] was 107 % of control.
